Test results from PubChem BioAssay (NCI).
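These data come from cells grown in 96-well plates and exposed to compound for 48 hours at five concentrations. Abbreviation: GI50, concentration required for 50% inhibition of growth. TGI denotes the concentration required for complete inhibition of growth.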

Tests used:
Assay in all cases: NCI-60 cell line screen, 48 h
DU-145 prostate = test system: DU-145 prostate
SNB-19 CNS = test system: SNB-19 CNS
LOX IMVI melanoma = test system: LOX IMVI melanoma
OVCAR-8 ovarian = test system: OVCAR-8 ovarian
HCT-116 colon = test system: HCT-116 colon
NCI-H460 lung = test system: NCI-H460 lung
KM12 colon = test system: KM12 colon
SN12C renal = test system: SN12C renal
SK-MEL-5 melanoma = test system: SK-MEL-5 melanoma
SK-MEL-28 melanoma = test system: SK-MEL-28 melanoma
SF-539 CNS = test system: SF-539 CNS
UO-31 renal = test system: UO-31 renal
RPMI-8226 leukemia = test system: RPMI-8226 leukemia
IGROV1 ovarian = test system: IGROV1 ovarian
U251 CNS = test system: U251 CNS
CCRF-CEM leukemia = test system: CCRF-CEM leukemia
HL-60(TB) leukemia = test system: HL-60(TB) leukemia
MDA-MB-435 = test system: MDA-MB-435
HCC-2998 colon = test system: HCC-2998 colon
HOP-62 NSCLC = test system: HOP-62 NSCLC
OVCAR-4 ovarian = test system: OVCAR-4 ovarian
HOP-92 NSCLC = test system: HOP-92 NSCLC
EKVX NSCLC = test system: EKVX NSCLC
T-47D breast = test system: T-47D breast
M14 melanoma = test system: M14 melanoma
NCI-H226 lung = test system: NCI-H226 lung
MDA-MB-231 breast = test system: MDA-MB-231 breast
HT29 colon = test system: HT29 colon
HS 578T breast = test system: HS 578T breast
HCT-15 colon = test system: HCT-15 colon
TK-10 renal = test system: TK-10 renal
PC-3 prostate = test system: PC-3 prostate
BT-549 breast = test system: BT-549 breast
NCI/ADR-RES ovarian = test system: NCI/ADR-RES ovarian
SK-OV-3 ovarian = test system: SK-OV-3 ovarian
K-562 leukemia = test system: K-562 leukemia
UACC-62 melanoma = test system: UACC-62 melanoma
MALME-3M melanoma = test system: MALME-3M melanoma
ACHN renal = test system: ACHN renal
RXF 393 renal = test system: RXF 393 renal
OVCAR-3 ovarian = test system: OVCAR-3 ovarian
SNB-75 CNS = test system: SNB-75 CNS
A549 NSCLC = test system: A549 NSCLC
NCI-H522 lung = test system: NCI-H522 lung
MCF7 breast = test system: MCF7 breast
CAKI-1 renal = test system: CAKI-1 renal
NCI-H23 lung = test system: NCI-H23 lung
SK-MEL-2 melanoma = test system: SK-MEL-2 melanoma
SW-620 colon = test system: SW-620 colon
OVCAR-5 ovarian = test system: OVCAR-5 ovarian
A498 renal = test system: A498 renal
UACC-257 melanoma = test system: UACC-257 melanoma
COLO 205 colon = test system: COLO 205 colon
SF-295 CNS = test system: SF-295 CNS
SF-268 CNS = test system: SF-268 CNS
MOLT-4 leukemia = test system: MOLT-4 leukemia
786-0 renal = test system: 786-0 renal

## CCCCCCCC/C=C/CCCCCCCC1=NC(C)(C)CN1CCO
DU-145 prostate
  GI50: 1.72 µM
  TGI: 3.09 µM
SNB-19 CNS
  GI50: 6.26 µM
  TGI: 21.5 µM
LOX IMVI melanoma
  GI50: 1.55 µM
  TGI: 2.95 µM
OVCAR-8 ovarian
  GI50: 2.29 µM
  TGI: 4.74 µM
HCT-116 colon
  GI50: 1.59 µM
  TGI: 2.99 µM
NCI-H460 lung
  GI50: 1.85 µM
  TGI: 3.42 µM
KM12 colon
  GI50: 1.69 µM
  TGI: 3.06 µM
SN12C renal
  GI50: 4.7 µM
  TGI: 18 µM
SK-MEL-5 melanoma
  GI50: 2.87 µM
  TGI: 8.4 µM
SK-MEL-28 melanoma
  GI50: 1.89 µM
  TGI: 3.39 µM
SF-539 CNS
  GI50: 1.68 µM
  TGI: 3.07 µM
UO-31 renal
  GI50: 2.18 µM
  TGI: 6.85 µM
RPMI-8226 leukemia
  GI50: 2.02 µM
  TGI: 4.31 µM
IGROV1 ovarian
  GI50: 1.51 µM
  TGI: 2.9 µM
U251 CNS
  GI50: 1.62 µM
  TGI: 2.97 µM
CCRF-CEM leukemia
  GI50: 2.22 µM
  TGI: 6.75 µM
HL-60(TB) leukemia
  GI50: 1.74 µM
  TGI: 3.81 µM
MDA-MB-435
  GI50: 1.73 µM
  TGI: 3.41 µM
HCC-2998 colon
  GI50: 1.7 µM
  TGI: 3.1 µM
HOP-62 NSCLC
  GI50: 1.83 µM
  TGI: 3.29 µM
OVCAR-4 ovarian
  GI50: 2.8 µM
  TGI: 8.59 µM
HOP-92 NSCLC
  GI50: 1.43 µM
  TGI: 7.45 µM
EKVX NSCLC
  GI50: 3.55 µM
  TGI: 12.8 µM
T-47D breast
  GI50: 1.94 µM
  TGI: 4.34 µM
M14 melanoma
  GI50: 1.74 µM
  TGI: 3.21 µM
NCI-H226 lung
  GI50: 12.6 µM
  TGI: 32.8 µM
MDA-MB-231 breast
  GI50: 1.72 µM
  TGI: 3.69 µM
HT29 colon
  GI50: 1.51 µM
  TGI: 3.1 µM
HS 578T breast
  GI50: 1.76 µM
  TGI: 3.98 µM
HCT-15 colon
  GI50: 1.58 µM
  TGI: 3.16 µM
TK-10 renal
  GI50: 1.91 µM
  TGI: 3.94 µM
PC-3 prostate
  GI50: 2.19 µM
  TGI: 9.38 µM
BT-549 breast
  GI50: 5.76 µM
  TGI: 19.6 µM
NCI/ADR-RES ovarian
  GI50: 3.87 µM
  TGI: 13.9 µM
SK-OV-3 ovarian
  GI50: 9.97 µM
  TGI: 24.2 µM
K-562 leukemia
  GI50: 1.3 µM
  TGI: 3.02 µM
UACC-62 melanoma
  GI50: 1.72 µM
  TGI: 3.42 µM
MALME-3M melanoma
  GI50: 1.85 µM
  TGI: 3.88 µM
ACHN renal
  GI50: 2.28 µM
  TGI: 5.79 µM
RXF 393 renal
  GI50: 2.02 µM
  TGI: 4.37 µM
OVCAR-3 ovarian
  GI50: 4.52 µM
  TGI: 9 µM
SNB-75 CNS
  GI50: 1.83 µM
  TGI: 4.26 µM
A549 NSCLC
  GI50: 1.91 µM
  TGI: 3.56 µM
NCI-H522 lung
  GI50: 1.81 µM
  TGI: 3.58 µM
MCF7 breast
  GI50: 1.7 µM
  TGI: 3.19 µM
CAKI-1 renal
  GI50: 1.56 µM
  TGI: 3.03 µM
NCI-H23 lung
  GI50: 1.84 µM
  TGI: 3.7 µM
SK-MEL-2 melanoma
  GI50: 1.86 µM
  TGI: 3.49 µM
SW-620 colon
  GI50: 1.73 µM
  TGI: 3.37 µM
OVCAR-5 ovarian
  GI50: 2.73 µM
  TGI: 7.98 µM
A498 renal
  GI50: 2.64 µM
  TGI: 16.8 µM
UACC-257 melanoma
  GI50: 2 µM
  TGI: 3.81 µM
COLO 205 colon
  GI50: 1.66 µM
  TGI: 3.11 µM
SF-295 CNS
  GI50: 1.73 µM
  TGI: 3.36 µM
SF-268 CNS
  GI50: 1.46 µM
  TGI: 2.78 µM
MOLT-4 leukemia
  GI50: 1.44 µM
  TGI: 4.9 µM
786-0 renal
  GI50: 1.73 µM
  TGI: 3.14 µM
